The record followed here is patent US6004950A, “2-aminopyridines as inhibitors of cyclooxygenase-2” (Merck Frosst Canada, Inc., priority 1998, dated 1999).

In test [1] the target is T1, COX-2 (Homo sapiens, UniProt P35354).
T1 construct: incubation of human whole blood with LPS, which induces COX-2; endogenous in cells; host or cells: heparinized fresh whole blood of human volunteers, incubated with LPS for 24 h
T1 sequence (P35354 18-604): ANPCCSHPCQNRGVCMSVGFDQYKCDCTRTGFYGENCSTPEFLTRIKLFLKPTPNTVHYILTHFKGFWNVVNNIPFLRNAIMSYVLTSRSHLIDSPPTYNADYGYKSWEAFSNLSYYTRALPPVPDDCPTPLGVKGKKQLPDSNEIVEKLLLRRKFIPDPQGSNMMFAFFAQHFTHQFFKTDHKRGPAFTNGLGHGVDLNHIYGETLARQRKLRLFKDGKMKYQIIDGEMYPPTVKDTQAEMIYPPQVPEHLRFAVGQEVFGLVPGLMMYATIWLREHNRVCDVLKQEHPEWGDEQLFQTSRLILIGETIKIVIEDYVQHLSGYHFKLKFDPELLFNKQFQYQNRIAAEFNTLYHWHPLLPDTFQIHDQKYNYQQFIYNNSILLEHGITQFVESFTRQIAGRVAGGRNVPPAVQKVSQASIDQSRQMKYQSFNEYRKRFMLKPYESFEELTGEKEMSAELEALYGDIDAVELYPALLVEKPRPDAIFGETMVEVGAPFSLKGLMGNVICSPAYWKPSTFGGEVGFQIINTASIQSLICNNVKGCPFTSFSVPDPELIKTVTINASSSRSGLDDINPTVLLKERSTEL
Kind of test: Whole cell assay for COX-2 using CHO transfected cell line CHO[hCOX-2], inhibition of PGE2 synthesis. The class given is cell-based. The conditions noted are these: CHO[hCOX-2] cells, 10 μM AA, PGE2; read-out: COX-2 (IC50 mM) CHO.

The target of test [2] is T1, COX-2. Kind of test: Human whole blood assay, COX-2 (LPS-induced PGE2 production). The class given is cell-based. The conditions noted are these: human whole blood, LPS-induced PGE2, 24 h; read-out: COX-2 (IC50 mM) HWB. An excerpt:
(§1) As well, platelets in whole blood contain a large amount of the COX-1 enzyme. Immediately following blood clotting, platelets are activated through a thrombin-mediated mechanism. This reaction results in the production of thromboxane B2 (TxB2) via activation of COX-1. Thus, the effect of test compounds on TxB2 levels following blood clotting can be examined and used as an index for COX-1 activity. Therefore, the degree of selectivity by the test compound can be determined by measuring the levels of PGE2 after LPS induction (COX-2) and TxB2 following blood clotting (COX-1) in the same assay.
A. COX-2 (LPS-induced PGE2 production)
Fresh blood is collected in heparinized tubes by venipuncture from both male and female volunteers. The subjects have no apparent inflammatory conditions and have not taken any NSAIDs for at least 7 days prior to blood collection. Plasma is immediately obtained from a 2 mL blood aliquot to use as blank (basal levels of PGE2).

Test [3] has as its target T2, COX-1 (Homo sapiens, UniProt P23219). Kind of test: Human whole blood assay, COX-1 (clotting-induced TxB2 production). More on the design: platelets in whole blood contain a large amount of the COX-1 enzyme; endogenous in cells; host or cells: fresh human whole blood without anticoagulant (platelets), clotted 1 h at 37° C. As to conditions: clotting-induced TxB2, 1 h, read-out: COX-1 (IC50 mM) HWB. Type of test: cell-based. Here is the method: as §1, with “Human whole blood provides a protein and cell-rich milieu appropriate for the study of biochemical efficacy of anti-inflammatory compounds such as selective COX-2 inhibitors. […] This is consistent with the observation that COX-2 inhibitors have no effect on PGE2 production in normal blood. These inhibitors are active only after incubation of human whole blood with LPS, which induces COX-2. This assay can be used to evaluate the inhibitory effect of selective COX-2 inhibitors on PGE2 production. As” for “As”
B. COX-1 (Clotting-induced TxB2 production)
Fresh blood is collected into vacutainers containing no anticoagulants. […] The tubes are vortexed and incubated at 37° C. for 1 hour to allow blood to clot. At the end of incubation, serum is obtained by centrifugation (12,000×g for 5 min.). […]

For test [4], the target named is T2, COX-1. Kind of test: Assay of COX-1 activity from U937 cell microsomes. Type of test: biochemical. Further details: Assay of COX-1 Activity from U937 cell microsomes; endogenous in cells; host or cells: U937 cells, 100,000×g microsomal pellet. Here is the method:
Assay of COX-1 Activity from U937 cell microsomes
U 937 cells are pelleted by centrifugation at 500×g for 5 min and washed once with phosphate-buffered saline and repelleted. Cells are resuspended in homogenization buffer consisting of 0.1 M Tris-HCl, pH 7.4, 10 mM EDTA, 2 μg/ml leupeptin, 2 μg/ml soybean trypsin inhibitor, 2 μg/ml aprotinin and 1 mM phenyl methyl sulfonyl fluoride. The cell suspension is sonicated 4 times for 10 sec and is centrifuged at 10,000×g for 10 min at 4° C. The supernatant is centrifuged at 100,000×g for 1 hr at 4° C. The 100,000×g microsomal pellet is resuspended in 0.1 M Tris-HCl, pH 7.4, 10 mM EDTA to approximately 7 mg protein/ml and stored at -80° C.
Microsomal preparations are thawed immediately prior to use, subjected to a brief sonication, and then diluted to a protein concentration of 125 μg/ml in 0.1 M Tris-HCl buffer, pH 7.4 containing 10 mM EDTA, 0.5 mM phenol, 1 mM reduced glutathione and 1 μM hematin. Assays are performed in duplicate in a final volume of 250 μl. Initially, 5 μl of DMSO vehicle or drug in DMSO are added to 20 μl of 0.1 M Tris-HCl buffer, pH 7.4 containing 10 mM EDTA in wells of a 96-deepwell polypropylene titre plate. 200 μl of the microsomal preparation are then added and pre-incubated for 15 min at room temperature before addition of 25 μl of […] arachidonic acid in […] Tris-HCl and 10 mM EDTA, pH 7.4. Samples are incubated for 40 min at room temperature and the reaction is stopped by the addition of 25 μl of 1 N HCl. Samples are neutralized with 25 μl of 1 N NaOH prior to quantitation of PGE2 content by radioimmunoassay (Dupont-NEN or Amersham assay kits). Cyclooxygenase activity is defined as the difference between PGE2 levels in samples incubated in the presence of arachidonic acid and ethanol vehicle.
In the assay, inhibition is determined by measuring the amount of prostaglandin E2 (PGE2) synthesized in the presence of arachidonic acid, cyclooxygenase-1 or cyclooxygenase-2 and a putative inhibitor.

The mark [5] stands for this setting: U937 cell microsomes, PGE2, read-out: COX-1 (IC50 mM) U-937.

The structures appear in SMILES notation.

T2 sequence (P23219 24-599): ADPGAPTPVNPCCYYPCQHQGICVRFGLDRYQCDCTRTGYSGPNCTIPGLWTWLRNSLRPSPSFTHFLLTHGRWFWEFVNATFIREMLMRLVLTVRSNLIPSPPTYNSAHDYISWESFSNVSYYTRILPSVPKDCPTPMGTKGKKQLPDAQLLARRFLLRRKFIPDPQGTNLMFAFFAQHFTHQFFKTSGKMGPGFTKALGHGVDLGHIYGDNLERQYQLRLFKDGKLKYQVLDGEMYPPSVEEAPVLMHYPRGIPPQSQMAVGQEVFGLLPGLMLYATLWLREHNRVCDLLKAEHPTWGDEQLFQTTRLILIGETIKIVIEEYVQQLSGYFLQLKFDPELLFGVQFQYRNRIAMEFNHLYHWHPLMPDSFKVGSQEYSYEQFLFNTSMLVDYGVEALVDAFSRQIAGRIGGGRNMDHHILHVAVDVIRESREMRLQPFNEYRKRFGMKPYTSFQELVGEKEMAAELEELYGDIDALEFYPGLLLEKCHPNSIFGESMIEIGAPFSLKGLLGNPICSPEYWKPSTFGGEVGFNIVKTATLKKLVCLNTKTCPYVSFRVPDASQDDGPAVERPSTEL

For orientation: IC50 means the concentration that inhibits the measured activity by half. For the compound `CS(=O)(=O)c1ccc(-c2cc(C(F)(F)F)cnc2N2CCCCC2)cc1` [Example 2, 3-(4-Methylsulfonyl)phenyl-2-piperidin-1-yl-5-trifluoromethylpyridine], the half-inhibitory concentration (IC50) on COX-2 [1] is 4 nM; on COX-2 [2], 0.0003 mM; at COX-1 [3] it was over 0.1 mM; on COX-1 [4] (setting [5]), 0.003 mM.

For the compound `CS(=O)(=O)c1ccc(-c2cc(C(F)(F)F)cnc2N2CCC(O)CC2)cc1` [Example 22, 3-(4-Methylsulfonyl)phenyl-2-(4-hydroxy)piperidin-1-yl-5-trifluoromethylpyridine], the IC50 at COX-2 [1] is 30 nM; on COX-2 [2] it was 0.0108 mM; at COX-1 [4] (setting [5]), over 0.01 mM.

With `CS(=O)(=O)c1ccc(-c2cc(C(F)(F)F)cnc2N2CCCC(O)C2)cc1` (stereo not shown) [Example 23, 3-(4-Methylsulfonyl)phenyl-2-(3-hydroxy)piperidin-1-yl-5-trifluoromethylpyridine], the IC50 is 30 nM on COX-2 [1], 0.0075 mM at COX-2 [2] and over 0.01 mM at COX-1 [4].

For `CS(=O)(=O)c1ccc(-c2cc(C(F)(F)F)cnc2N2CCC(F)(F)CC2)cc1` [Example 24, 2-(4,4-Difluoro)piperidin-1-yl-3-(4-methylsulfonyl)phenyl-5-trifluoromethylpyridine], the results for the IC50 on COX-2 [1], on COX-2 [2] and at COX-1 [4] (setting [5]) were 20 nM, 0.0103 mM and over 0.01 mM, respectively.

As for `CS(=O)(=O)c1ccc(-c2cc(C(F)(F)F)cnc2N2CCCC(F)(F)C2)cc1` [Example 25, 2-(3,3-Difluoro)piperidin-1-yl-3-(4-methylsulfonyl)phenyl-5-trifluoromethylpyridine], the IC50 is 80 nM at COX-2 [1], 0.0047 mM at COX-2 [2] and over 0.01 mM at COX-1 [4] (setting [5]).

As to `CS(=O)(=O)c1ccc(-c2cc(C(F)(F)F)cnc2N2CCC(F)CC2)cc1` [Example 26, 2-(4-Fluoro)piperidin-1-yl-3-(4-methylsulfonyl)phenyl-5-trifluoromethylpyridine], the IC50 on COX-2 [1] is 10 nM; at COX-2 [2], 0.0017 mM; at COX-1 [4] (setting [5]) it was 0.003 to 0.01 mM.

With `CS(=O)(=O)c1ccc(-c2cc(C(F)(F)F)cnc2N2CCOCC2)cc1` [Example 27, 3-(4-Methylsulfonyl)phenyl-2-morpholin-4-yl-5-trifluoromethylpyridine], the IC50 on COX-2 [1] was 60 nM; on COX-2 [2], 0.0036 mM; at COX-1 [4] (setting [5]), over 0.01 mM.

On to `CS(=O)(=O)c1ccc(-c2cc(C(F)(F)F)cnc2N2CCSCC2)cc1` [Example 28, 3-(4-Methylsulfonyl)phenyl-2-thiomorpholin-4-yl-5-trifluoromethylpyridine], for which the values for the IC50 on COX-2 [1], at COX-2 [2] and at COX-1 [4] (setting [5]) were 30 nM, 0.0014 mM and 0.003 to 0.01 mM, respectively.
